Data taken from patent US8501961B2, “HIV protease inhibitors and methods for using” (priority 2008, dated 2013).

Tests used:
[1] = target: HIV-1 protease (Human immunodeficiency virus type 1 group M subtype B (isolate HXB2) (HIV-1), UniProt P04585); experiment: HIV-1 protease enzyme inhibitory assay (protocol of Toth and Marshall); assay type: biochemical; settings: for fold reduction in enzymatic inhibitory potency with respect to 3d: vs 3d; for potency compared to 3i: vs 3i
Excerpt: In another embodiment, inhibitors described herein contain a (R)-hydroxyethylamine sulfonamide isostere with a p-methoxysulfonamide as the P2′-ligand and various designed cyclic ethers and polyethers as the P2-ligands. In another embodiment, assays are described herein for evaluating compounds. Illustrative inhibitors described herein are initially evaluated in an enzyme inhibitory assay utilizing a protocol described by Toth and Marshall (Toth, M. V.; Marshall, G. R. A simple, continuous fluorometric assay for HIV protease. Int. J. Pep. Protein Res. 1990, 36, 544-550). […]

[2] = system: HIV-1-LAI; experiment: Antiviral assay in MT-2 cells, inhibition of HIV-1-elicited cytopathic effect; assay type: cell-based; settings: Human immunodeficiency virus 1, T-lymphoid, MT-2 human T-lymphoid cells exposed to HIV-1-LAI
[3] = Table 1, mean values of at least four determinations
[4] = Table 3, means of at least two experiments

| Structure (SMILES) | Ki [1, 3] [nM] | potency compared to 3i [1] | IC50 [2] [nM] | also measured |
| --- | --- | --- | --- | --- |
| COc1ccc(S(=O)(=O)N(CC(C)C)C[C@@H](O)[C@H](Cc2ccccc2)NC(=O)OC2CCCCCC2)cc1 [Inhibitor 3g, (1S,2R)-{1-Benzyl-2-hydroxy-3-[isobutyl(4-methoxybenzenesulfonyl)amino]propyl}carbamic acid Cycloheptanyl ester] | 27 ± 0.81 | – | – | – |
| COc1ccc(S(=O)(=O)N(CC(C)C)C[C@@H](O)[C@H](Cc2ccccc2)NC(=O)O[C@@H]2CCCCOC2)cc1 [Inhibitor 3e, (1S,2R)-{1-Benzyl-2-hydroxy-3-[isobutyl(4-methoxybenzenesulfonyl)amino]propyl}carbamic acid (R)-oxepan-3-yl ester] | 0.81 ± 0.12 | – | – | fold reduction in enzymatic inhibitory potency with respect to 3d [1]: ~30 fold |
| COc1ccc(S(=O)(=O)N(CC(C)C)C[C@@H](O)[C@H](Cc2ccccc2)NC(=O)O[C@H]2CCCOCC2)cc1 [Inhibitor 3f, (1S,2R)-{1-Benzyl-2-hydroxy-3-[isobutyl(4-methoxybenzenesulfonyl)amino]propyl}carbamic acid (S)-oxepan-4-yl ester] | 0.74 ± 0.15 | – | – | fold reduction in enzymatic inhibitory potency with respect to 3d [1]: ~30 fold |
| COc1ccc(S(=O)(=O)N(CC(C)C)C[C@@H](O)[C@H](Cc2ccccc2)NC(=O)O[C@H]2CC3OCCO[C@@H]3C2)cc1 (stereo partly drawn) [Inhibitor 129, (1′S,2′R)-{1′-Benzyl-2′-hydroxy-3′-[isobutyl(4-methoxybenzenesulfonyl)amino]propyl} carbamic acid (1β,2β,4α)-1,2-(ethylenedioxy)cyclopent-4-yl ester] | – | – | – | Ki [1, 4]: 0.5 ± 0.04 nM |
| COc1ccc(S(=O)(=O)N(CC(C)C)C[C@@H](O)[C@H](Cc2ccccc2)NC(=O)OC2COCCS(=O)(=O)CCOC2)cc1 [Inhibitor 3l, (1S,2R)-{1-Benzyl-2-hydroxy-3-[isobutyl(4-methoxybenzenesulfonyl)amino]propyl}carbamic acid 3,9-dioxa-6-thiacyclodecan-1-yl 6,6-dioxide ester] | 1.9 ± 0.2 | 9 fold | > 1000 | – |
| COc1ccc(S(=O)(=O)N(CC(C)C)C[C@@H](O)[C@H](Cc2ccccc2)NC(=O)OC2COCCN(C)CCOC2)cc1 [Inhibitor 3m, (1S,2R)-{1-Benzyl-2-hydroxy-3-[isobutyl(4-methoxybenzenesulfonyl)amino]propyl}carbamic acid N-methyl-1,7-dioxa-4-azocyclodecan-9-yl ester] | 19 ± 0.76 | no change in inhibitory activity | > 1000 | – |
| COc1ccc(S(=O)(=O)N(CC(C)C)C[C@@H](O)[C@H](Cc2ccccc2)NC(=O)OC2COCCOCCOCCOC2)cc1 [Inhibitor 3j, (1S,2R)-{1-Benzyl-2-hydroxy-3-[isobutyl(4-methoxybenzenesulfonyl)amino]propyl}carbamic acid 3,6,9,12-tetraoxacyclotridecan-1-yl ester] | 33 ± 1.9 | – | – | – |
| COc1ccc(S(=O)(=O)N(CC(C)C)C[C@@H](O)[C@H](Cc2ccccc2)NC(=O)O[C@H]2CCCOCOC2)cc1 [Inhibitor 3a, (1S,2R)-{1-Benzyl-2-hydroxy-3-[isobutyl(4-methoxybenzenesulfonyl)amino]propyl}carbamic acid (1S)-3,5-dioxacyclooctan-1-yl ester] | 0.15 ± 0.019 | – | – | – |
| COc1ccc(S(=O)(=O)N(CC(C)C)C[C@@H](O)[C@H](Cc2ccccc2)NC(=O)OC2COCCOCOCCOC2)cc1 [Inhibitor 3k, (1S,2R)-{1-Benzyl-2-hydroxy-3-[isobutyl(4-methoxybenzenesulfonyl)amino]propyl}carbamic acid 3,6,8,11-tetraoxacyclododecan-1-yl ester] | 6.3 ± 0.57 | more than 2 fold | > 1000 | fold potency enhancement compared to inhibitor 3j ([1]; vs 3j): 5 fold |
| COc1ccc(S(=O)(=O)N(CC(C)C)C[C@@H](O)[C@H](Cc2ccccc2)NC(=O)O[C@H]2CC3OCO[C@@H]3C2)cc1 (stereo partly drawn) [Inhibitor 126, (1′S,2′R)-{1′-Benzyl-2′-hydroxy-3′-[isobutyl(4-methoxybenzenesulfonyl)amino]propyl} carbamic acid (1β,2β,4α)-1,2-(methylenedioxy)cyclopent-4-yl ester] | – | – | – | Ki [1, 4]: 0.4 ± 0.04 nM; fold less potent than the syn isomer 102 ([1]; vs 102): 3.5 fold |
